Where two headings read alike, the source gives them in different places.
How the values were obtained:
JEG-3 cells [1] = test: Scratch wound migration assay; assay type: cell-based, human; settings: for Migration, percent of wound closure: 100 µM, after 72 h; for cellular migration relative to vehicle control: after 24 h of exposure, 25-200 µM; for significant effects on migration observed at 24 h, followed to 72 h: any concentration, by 72 h
Description: JEG-3 cells were cultured as described in Cell Culture section, and six PFAS were evaluated across an 8-point linear concentration curve ranging from 25 to 200 µM (25 µM steps): PFOA (335-67-1), GenX (62037-80-3), PFOS (1763-23-1), perfluorooctanesulfonamide (PFOSA, 754-91-6), perfluorooctanamide (PFOAA, 423-54-1), and perfluorononanoic acid (PFNA, 375-95-1). The vehicle control group consisted of 98% media + 2% methanol to match the concentration of methanol in the media at the highest PFAS concentration tested (200 µM). Cadmium chloride (25 µM) was used as a positive control for cytotoxicity ([Brooks and Fry, 2017]). Chemical exposure plate maps were designed so that all experimental conditions were tested in at least technical duplicates per plate. The outer edges of each plate received media alone and were excluded from all analyses to avoid edge effects. JEG-3 cells were counted and seeded at a density of 80,000 cells per well in black-walled, clear bottom 96-well plates (Corning #CLS3603, Millipore Sigma) and allowed to adhere and grow for 36 h. After approximately 36 h, 96-well plates were imaged on the IncuCyte Zoom to obtain cellular confluence measurements prior to chemical dosing (0 h). Media was then removed from wells and replaced with fresh serum-free media containing chemical treatments (serum-free exposure media) using the Viaflo liquid handling device. After 1 h of treatment with serum-free exposure media, plates were again imaged for cellular confluence using the IncuCyte Zoom. Serum-free exposure media was then removed from wells and wells were scratched by dragging a 200 µl pipette tip from top to bottom of each well, changing tips every well. Fresh media containing serum and chemical treatments (exposure media) was added to plates using a liquid handling device and allowed to grow for 72 h, with imaging via the IncuCyte Zoom every 6 h.
Plate well bottom images were evaluated using automated cell masking as described in Proliferation section. Cell migration was calculated as the change in cellular confluence from the baseline measurement obtained immediately post-scratch to each subsequent time point (24, 48, and 72 h, post-scratch).
Raw migration assay data exported from IncuCyte software were analyzed using GraphPad Prism 8.0 (GraphPad Software, San Diego, CA)). Prior to analysis, a minimum starting confluence value of 70% was set to ensure comparisons between samples were not skewed. Images with a starting confluence of less than 70% were excluded from analysis. Statistical analysis was performed using multiple unpaired t-tests to compare treated groups to the vehicle control followed by post hoc correction for multiple tests using the Bonferroni-Dunn method. Concentration-response analysis to determine migration assay EC50s was attempted but was not able to be modeled due to the non-linear nature of the concentration-response relationship for this endpoint.

JEG-3 cells [2] = test: Proliferation, change in confluence 0-24 h (IncuCyte Zoom, HTTS); assay type: cell-based, human; settings: for cellular proliferation relative to vehicle control (rough binning): after 24 h, in at least one concentration; for Prolif ↓, lowest concentration at which the mean response value exceeded the mean control value ± 2*SD (rough binning): decrease
Summary of the method: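 Confluence measured by automated image masking at 0 h and 24 h after dosing; proliferation = 24 h minus baseline confluence. JEG-3 seeded at 2,500 cells/well, ~30–50% baseline confluence, exposed 24 h to PFAS up to 500 µM in medium with 2.5% methanol vehicle; 37°C, 5% CO2.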

[3] = JEG-3 cells, 24 h exposure, four-parameter fit, estimates meeting inclusion criteria, read-out: Proliferation EC50 ± SD
[4] = Homo sapiens, JEG-3, 24 h, read-out: Proliferation EC50 ± SD, JEG-3 cells, 24 h exposure, four-parameter fit, estimates meeting inclusion criteria

Row | Structure (SMILES) | Migration, percent of wound closure (JEG-3 cells [1]) [%] | cellular migration relative to vehicle control (JEG-3 cells [1]) | Prolif ↑, lowest concentration at which the mean response value exceeded the mean control value ± 2*SD (rough binning) (JEG-3 cells [2]; JEG-3 cells, 24 h, increase) [µM] | cellular proliferation relative to vehicle control (rough binning) (JEG-3 cells [2]) | significant effects on migration observed at 24 h, followed to 72 h (JEG-3 cells [1]) | Prolif ↓, lowest concentration at which the mean response value exceeded the mean control value ± 2*SD (rough binning) (JEG-3 cells [2]; JEG-3 cells, 24 h) [µM] | EC50 (JEG-3 cells [2]; [3]) [µM] | EC50 (JEG-3 cells [2]; [4]) [µM] | EC50 (JEG-3 cells [2]; Homo sapiens, JEG-3, 24 h, read-out: proliferation EC50 ± SE, JEG-3 cells, 24 h) [µM] | EC50 (JEG-3 cells [2]; JEG-3 cells, 24 h exposure, four-parameter fit, estimates meeting inclusion criteria, listed as PFOS, read-out: Proliferation EC50 ± SD) [µM] | minimal effective concentration (JEG-3 cells [2]; Homo sapiens, JEG-3, 24 h, read-out: Prolif ↓, lowest concentration at which the mean response value exceeded the mean control value ± 2*SD (rough binning)) [µM]
1 | N.O=C(O)C(F)(OC(F)(F)C(F)(F)C(F)(F)F)C(F)(F)F (stereo not drawn) [Ammonium perfluoro-2-methyl-3-oxahexanoate] | 79 | significantly reduced | 50 | increased cellular proliferation |  |  |  |  |  |  | 
2 | O=C(O)C(F)(F)C(F)(F)C(F)(F)C(F)(F)C(F)(F)C(F)(F)C(F)(F)C(F)(F)F [Perfluorononanoic acid] |  | significantly reduced |  | reduced cellular proliferation | attenuated | 300 | 326 ± 5.5 |  |  |  | 
3 | NS(=O)(=O)C(F)(F)C(F)(F)C(F)(F)C(F)(F)C(F)(F)C(F)(F)C(F)(F)C(F)(F)F [Perfluorooctanesulfonamide] |  | significantly reduced |  |  |  |  |  | 160 ± 87.8 | 160 ± 90 |  | 
4 | O=S(=O)(O)C(F)(F)C(F)(F)C(F)(F)C(F)(F)C(F)(F)C(F)(F)C(F)(F)C(F)(F)F [Perfluorooctanesulfonic acid] | 57 | significantly reduced |  | reduced cellular proliferation |  | 250 | 294 ± 5.8 |  |  | 294 | 
5 | O=C(O)C(F)(F)C(F)(F)C(F)(F)C(F)(F)C(F)(F)C(F)(F)C(F)(F)F [Perfluorooctanoic acid] | 72 | significantly reduced |  | reduced cellular proliferation | attenuated |  |  | 344 ± 12.2 |  |  | 350

From PMC9081605, “A High-Throughput Toxicity Screen of 42 Per- and Polyfluoroalkyl Substances (PFAS) and Functional Assessment of Migration and Gene Expression in Human Placental Trophoblast Cells” (Frontiers in Toxicology, 2022)
